# Results from ChEMBL document CHEMBL4196007, “Design, synthesis and biological evaluation of novel 4-aminoquinazolines as dual target inhibitors of EGFR-PI3Kα” (Eur J Med Chem, 2018).
# Key:
# A549 = assay: Cytotoxicity against human A549 cells after 72 hrs by SRB assay; format: functional, cell-based; details: A549, 72 h
# BT-549 = assay: Cytotoxicity against human BT549 cells after 72 hrs by SRB assay; format: functional, cell-based; details: BT-549, 72 h
# HCT-116 = assay: Cytotoxicity against human HCT116 cells after 72 hrs by SRB assay; format: functional, cell-based; details: HCT-116, 72 h
# MCF7 = assay: Cytotoxicity against human MCF7 cells after 72 hrs by SRB assay; format: functional, cell-based; details: MCF7, 72 h
# SK-HEP1 = assay: Cytotoxicity against human SKHEP1 cells after 72 hrs by SRB assay; format: functional, cell-based; details: SK-HEP1, 72 h
# SNU-638 = assay: Cytotoxicity against human SNU638 cells after 72 hrs by SRB assay; format: functional, cell-based; details: SNU-638, 72 h
# [1] = biological target: Epidermal growth factor receptor (Homo sapiens, UniProt P00533); assay: Inhibition of EGFR (unknown origin) using FAM-labeled peptide as substrate preincubated for 10 mins followed by substrate addition and measured after 1 hr by mobility shift assay
# [2] = biological target: Phosphatidylinositol 4,5-bisphosphate 3-kinase catalytic subunit alpha isoform (Homo sapiens, UniProt P42336); assay: Inhibition of PI3K p110alpha (unknown origin) using PIP2 as substrate by ELISA
# [3] = biological target: Phosphatidylinositol 4,5-bisphosphate 3-kinase catalytic subunit beta isoform (Homo sapiens, UniProt P42338); assay: Inhibition of PI3K p110beta (unknown origin) using PIP2 as substrate by ELISA
# [4] = biological target: Phosphatidylinositol 4,5-bisphosphate 3-kinase catalytic subunit gamma isoform (Homo sapiens, UniProt P48736); assay: Inhibition of PI3K p110gamma (unknown origin) using PIP2 as substrate by ELISA
# [5] = biological target: T1, Phosphatidylinositol 4,5-bisphosphate 3-kinase catalytic subunit delta isoform (Homo sapiens, UniProt O00329); assay: Inhibition of PI3K p110delta (unknown origin) using PIP2 as substrate by ELISA
# T1 sequence (O00329 whole entry): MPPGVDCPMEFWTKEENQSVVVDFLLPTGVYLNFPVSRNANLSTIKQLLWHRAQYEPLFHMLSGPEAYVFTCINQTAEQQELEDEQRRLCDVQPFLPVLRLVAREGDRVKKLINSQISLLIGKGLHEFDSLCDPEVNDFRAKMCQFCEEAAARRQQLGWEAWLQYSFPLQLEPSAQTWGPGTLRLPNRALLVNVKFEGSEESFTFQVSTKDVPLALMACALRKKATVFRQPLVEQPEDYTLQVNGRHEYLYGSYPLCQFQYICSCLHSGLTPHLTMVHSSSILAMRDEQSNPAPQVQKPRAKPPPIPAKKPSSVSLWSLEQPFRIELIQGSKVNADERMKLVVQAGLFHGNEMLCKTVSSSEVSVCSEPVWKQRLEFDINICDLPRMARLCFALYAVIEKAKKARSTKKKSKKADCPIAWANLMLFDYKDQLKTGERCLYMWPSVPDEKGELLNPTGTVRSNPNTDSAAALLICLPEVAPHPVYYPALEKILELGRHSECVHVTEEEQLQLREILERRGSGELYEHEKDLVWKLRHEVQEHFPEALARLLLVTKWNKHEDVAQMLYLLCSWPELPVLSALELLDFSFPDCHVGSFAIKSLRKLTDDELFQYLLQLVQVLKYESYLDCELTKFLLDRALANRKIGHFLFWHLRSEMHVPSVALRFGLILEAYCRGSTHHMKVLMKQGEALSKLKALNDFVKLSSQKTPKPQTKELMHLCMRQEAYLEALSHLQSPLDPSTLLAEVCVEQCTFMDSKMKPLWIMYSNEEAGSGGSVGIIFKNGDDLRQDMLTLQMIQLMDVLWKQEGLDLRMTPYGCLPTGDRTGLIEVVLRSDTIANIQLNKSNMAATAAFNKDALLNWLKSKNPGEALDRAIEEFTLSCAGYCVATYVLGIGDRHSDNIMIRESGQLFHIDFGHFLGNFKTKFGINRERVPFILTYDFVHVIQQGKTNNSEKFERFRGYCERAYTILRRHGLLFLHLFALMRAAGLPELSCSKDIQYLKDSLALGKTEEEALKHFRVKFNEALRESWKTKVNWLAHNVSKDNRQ
# Sequence of Phosphatidylinositol 4,5-bisphosphate 3-kinase catalytic subunit beta isoform (P42338 whole entry, canonical isoform): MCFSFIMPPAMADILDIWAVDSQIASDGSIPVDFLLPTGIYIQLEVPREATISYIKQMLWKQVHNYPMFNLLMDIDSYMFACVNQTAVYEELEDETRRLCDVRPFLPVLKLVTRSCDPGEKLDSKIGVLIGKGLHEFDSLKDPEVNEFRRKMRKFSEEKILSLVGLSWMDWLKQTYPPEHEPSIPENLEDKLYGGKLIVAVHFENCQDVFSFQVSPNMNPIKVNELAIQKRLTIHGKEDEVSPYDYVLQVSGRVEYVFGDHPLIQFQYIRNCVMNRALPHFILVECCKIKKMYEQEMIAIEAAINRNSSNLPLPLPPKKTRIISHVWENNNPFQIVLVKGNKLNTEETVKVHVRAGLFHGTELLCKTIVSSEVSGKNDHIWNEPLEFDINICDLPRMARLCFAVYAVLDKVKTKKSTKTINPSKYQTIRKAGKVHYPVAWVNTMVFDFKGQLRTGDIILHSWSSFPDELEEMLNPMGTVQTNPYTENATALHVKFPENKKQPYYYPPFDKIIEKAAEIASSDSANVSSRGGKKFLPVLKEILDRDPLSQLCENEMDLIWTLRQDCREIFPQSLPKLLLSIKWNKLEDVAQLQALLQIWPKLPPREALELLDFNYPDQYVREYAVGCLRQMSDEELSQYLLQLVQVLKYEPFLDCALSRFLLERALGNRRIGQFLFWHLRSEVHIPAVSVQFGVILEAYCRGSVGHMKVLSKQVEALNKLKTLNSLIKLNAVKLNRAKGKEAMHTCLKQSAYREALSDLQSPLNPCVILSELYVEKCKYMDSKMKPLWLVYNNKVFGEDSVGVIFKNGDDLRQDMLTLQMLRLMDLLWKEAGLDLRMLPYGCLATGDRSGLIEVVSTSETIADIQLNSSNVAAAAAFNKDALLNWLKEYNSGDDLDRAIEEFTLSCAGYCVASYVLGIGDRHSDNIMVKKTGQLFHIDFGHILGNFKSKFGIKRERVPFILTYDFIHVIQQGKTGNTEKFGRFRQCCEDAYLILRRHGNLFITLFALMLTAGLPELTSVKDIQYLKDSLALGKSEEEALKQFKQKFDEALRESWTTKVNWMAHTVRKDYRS
# Sequence of Phosphatidylinositol 4,5-bisphosphate 3-kinase catalytic subunit gamma isoform (P48736 whole entry, canonical isoform): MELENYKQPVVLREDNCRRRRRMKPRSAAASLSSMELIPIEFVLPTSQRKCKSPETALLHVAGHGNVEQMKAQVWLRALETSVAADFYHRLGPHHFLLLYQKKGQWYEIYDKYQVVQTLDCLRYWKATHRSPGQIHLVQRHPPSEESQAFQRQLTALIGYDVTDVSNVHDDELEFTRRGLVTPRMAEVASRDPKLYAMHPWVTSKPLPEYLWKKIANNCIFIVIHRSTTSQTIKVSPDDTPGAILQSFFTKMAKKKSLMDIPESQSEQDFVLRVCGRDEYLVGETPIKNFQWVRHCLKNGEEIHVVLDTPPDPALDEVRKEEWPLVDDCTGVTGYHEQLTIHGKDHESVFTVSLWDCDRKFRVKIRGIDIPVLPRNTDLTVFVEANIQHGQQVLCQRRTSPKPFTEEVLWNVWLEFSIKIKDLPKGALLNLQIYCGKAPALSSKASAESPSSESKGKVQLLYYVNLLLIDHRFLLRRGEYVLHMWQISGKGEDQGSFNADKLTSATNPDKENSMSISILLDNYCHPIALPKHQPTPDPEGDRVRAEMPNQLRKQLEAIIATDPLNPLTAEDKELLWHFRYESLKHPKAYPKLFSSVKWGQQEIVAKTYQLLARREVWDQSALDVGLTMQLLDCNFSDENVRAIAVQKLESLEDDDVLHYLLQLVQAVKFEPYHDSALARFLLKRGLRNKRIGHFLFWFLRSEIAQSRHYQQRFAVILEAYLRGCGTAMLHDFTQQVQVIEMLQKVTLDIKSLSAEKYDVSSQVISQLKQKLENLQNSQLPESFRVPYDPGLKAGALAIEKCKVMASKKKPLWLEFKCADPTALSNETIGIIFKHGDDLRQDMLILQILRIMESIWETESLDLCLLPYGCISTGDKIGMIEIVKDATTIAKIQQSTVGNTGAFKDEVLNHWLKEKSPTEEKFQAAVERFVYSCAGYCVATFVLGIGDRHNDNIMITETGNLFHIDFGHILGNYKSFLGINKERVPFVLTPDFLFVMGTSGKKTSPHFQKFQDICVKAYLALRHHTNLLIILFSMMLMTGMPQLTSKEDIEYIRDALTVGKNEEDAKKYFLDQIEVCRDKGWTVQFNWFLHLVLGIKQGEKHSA
# Sequence of Epidermal growth factor receptor (P00533 whole entry, canonical isoform): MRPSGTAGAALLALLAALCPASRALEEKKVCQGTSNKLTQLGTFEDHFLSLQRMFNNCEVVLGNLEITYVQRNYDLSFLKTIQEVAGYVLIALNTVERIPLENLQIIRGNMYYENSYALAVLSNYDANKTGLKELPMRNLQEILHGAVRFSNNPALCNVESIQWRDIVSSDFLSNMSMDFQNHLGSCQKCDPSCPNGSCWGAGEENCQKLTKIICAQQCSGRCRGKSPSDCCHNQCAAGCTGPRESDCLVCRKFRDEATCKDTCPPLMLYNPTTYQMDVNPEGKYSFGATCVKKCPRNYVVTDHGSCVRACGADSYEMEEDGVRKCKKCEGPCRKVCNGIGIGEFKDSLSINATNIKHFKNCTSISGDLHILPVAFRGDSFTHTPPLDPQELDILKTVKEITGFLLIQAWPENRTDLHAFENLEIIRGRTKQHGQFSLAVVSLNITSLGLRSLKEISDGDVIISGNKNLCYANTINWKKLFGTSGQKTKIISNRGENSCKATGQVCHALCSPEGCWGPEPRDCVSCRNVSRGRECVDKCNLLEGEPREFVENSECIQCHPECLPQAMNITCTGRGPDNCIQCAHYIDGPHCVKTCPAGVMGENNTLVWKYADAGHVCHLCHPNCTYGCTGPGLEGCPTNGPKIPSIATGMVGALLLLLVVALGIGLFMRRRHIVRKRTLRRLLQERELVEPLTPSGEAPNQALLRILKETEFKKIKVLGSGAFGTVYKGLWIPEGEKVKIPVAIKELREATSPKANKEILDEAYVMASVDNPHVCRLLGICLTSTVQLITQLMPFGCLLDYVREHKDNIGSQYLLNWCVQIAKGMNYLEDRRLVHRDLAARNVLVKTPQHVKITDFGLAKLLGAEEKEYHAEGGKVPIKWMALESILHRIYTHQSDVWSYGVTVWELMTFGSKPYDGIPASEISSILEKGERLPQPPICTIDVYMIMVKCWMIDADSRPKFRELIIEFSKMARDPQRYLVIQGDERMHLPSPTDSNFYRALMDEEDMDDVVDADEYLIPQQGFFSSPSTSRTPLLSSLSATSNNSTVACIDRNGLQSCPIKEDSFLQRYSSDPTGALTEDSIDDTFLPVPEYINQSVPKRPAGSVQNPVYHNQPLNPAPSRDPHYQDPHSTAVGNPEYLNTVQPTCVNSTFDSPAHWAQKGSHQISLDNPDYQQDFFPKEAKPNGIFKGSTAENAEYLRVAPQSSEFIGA
# Sequence of Phosphatidylinositol 4,5-bisphosphate 3-kinase catalytic subunit alpha isoform (P42336 whole entry, canonical isoform): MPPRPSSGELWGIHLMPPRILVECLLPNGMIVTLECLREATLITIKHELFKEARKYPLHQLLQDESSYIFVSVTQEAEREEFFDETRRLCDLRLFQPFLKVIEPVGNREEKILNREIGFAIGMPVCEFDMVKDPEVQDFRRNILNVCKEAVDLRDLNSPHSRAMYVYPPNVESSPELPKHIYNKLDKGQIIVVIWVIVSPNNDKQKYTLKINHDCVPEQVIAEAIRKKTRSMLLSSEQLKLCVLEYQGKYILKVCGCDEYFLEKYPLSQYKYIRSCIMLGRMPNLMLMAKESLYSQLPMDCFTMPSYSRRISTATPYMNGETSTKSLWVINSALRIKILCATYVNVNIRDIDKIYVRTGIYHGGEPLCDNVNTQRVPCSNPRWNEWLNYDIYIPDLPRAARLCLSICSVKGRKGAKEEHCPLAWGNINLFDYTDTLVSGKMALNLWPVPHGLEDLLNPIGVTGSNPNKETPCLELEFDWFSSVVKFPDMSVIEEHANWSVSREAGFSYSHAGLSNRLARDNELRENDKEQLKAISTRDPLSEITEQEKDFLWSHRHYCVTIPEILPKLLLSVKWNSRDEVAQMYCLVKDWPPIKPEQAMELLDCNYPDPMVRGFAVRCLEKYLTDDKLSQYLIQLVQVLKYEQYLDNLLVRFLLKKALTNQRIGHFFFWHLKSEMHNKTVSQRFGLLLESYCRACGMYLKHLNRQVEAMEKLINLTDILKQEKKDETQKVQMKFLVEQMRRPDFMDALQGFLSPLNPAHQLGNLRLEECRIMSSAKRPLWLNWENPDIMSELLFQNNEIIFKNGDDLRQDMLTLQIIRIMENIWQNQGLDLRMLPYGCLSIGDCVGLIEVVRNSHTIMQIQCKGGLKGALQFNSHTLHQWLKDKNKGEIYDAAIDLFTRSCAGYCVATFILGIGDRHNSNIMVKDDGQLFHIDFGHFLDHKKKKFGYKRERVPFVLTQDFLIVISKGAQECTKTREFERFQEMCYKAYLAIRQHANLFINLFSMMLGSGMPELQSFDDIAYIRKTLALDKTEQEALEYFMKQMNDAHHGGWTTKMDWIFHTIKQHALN
SMILES,IC50 (A549) [µM],IC50 (BT-549) [µM],IC50 (HCT-116) [µM],IC50 (MCF7) [µM],IC50 (SK-HEP1) [µM],IC50 (SNU-638) [µM],IC50 [1] [µM],IC50 [2] [µM],IC50 [3] [µM],IC50 [4] [µM],IC50 [5] [µM]
CCS(=O)(=O)Nc1cc(-c2ccc3ncnc(Nc4ccc(C(=O)OC)c(OC)c4)c3c2)cnc1OC,3.35,3.76,1.69,10.9,0.83,3.44,,,,,
CCS(=O)(=O)Nc1cc(-c2ccc3ncnc(Nc4ccc(F)cc4F)c3c2)cnc1OC,4.71,2.48,4.01,1.61,2.49,2.05,,,,,
CCS(=O)(=O)Nc1cc(-c2ccc3ncnc(Nc4cccc(C(=O)OC)c4)c3c2)cnc1OC,1.1,1.08,0.4,10.1,2.4,1.12,0.409,0.165,4.94,1.78,4.36
COC(=O)c1cccc(Nc2ncnc3ccc(-c4cnc(OC)c(NS(=O)(=O)c5ccc(F)cc5F)c4)cc23)c1,10.5,12.7,1.5,22.4,2.8,0.4,,,,,
CCS(=O)(=O)Nc1cc(-c2ccc3ncnc(Nc4ccc(Cl)c(C(=O)OC)c4)c3c2)cnc1OC,2.13,2.36,3.13,1.43,7.06,2.2,,,,,
Cn1c(=O)n(-c2ccc(C(C)(C)C#N)cc2)c2c3cc(-c4cnc5ccccc5c4)ccc3ncc21 [DACTOLISIB],0.62,0.74,0.84,1.33,1.82,1.24,,,,,
CCS(=O)(=O)Nc1cc(-c2ccc3ncnc(Nc4ccc(F)c(C(=O)OC)c4)c3c2)cnc1OC,3.42,2.74,2.36,1.15,5.18,2.54,,,,,
CCCCS(=O)(=O)Nc1cc(-c2ccc3ncnc(Nc4ccc(F)c(Cl)c4)c3c2)cnc1OC,77.1,56.8,9.99,65.8,53.8,5.35,,,,,
CCS(=O)(=O)Nc1cc(-c2ccc3ncnc(Nc4ccc(OC)nc4)c3c2)cnc1OC,5.56,3.49,6.91,3.77,3.44,4.28,,,,,
CCS(=O)(=O)Nc1cc(-c2ccc3ncnc(Nc4ccc(OCc5ccc(F)cc5)c(Cl)c4)c3c2)cnc1OC,31.3,14.6,5.41,28.4,1.95,2.36,,,,,
CCS(=O)(=O)Nc1cc(-c2ccc3ncnc(Nc4ccc(F)cc4)c3c2)cnc1OC,7.62,3.12,3.16,6.51,1.47,2.4,,,,,
CCS(=O)(=O)Nc1cc(-c2ccc3ncnc(Nc4ccc(F)nc4)c3c2)cnc1OC,6.72,4.78,7.62,5.39,5.24,6.52,,,,,
CCCCS(=O)(=O)Nc1cc(-c2ccc3ncnc(Nc4cccc(C(=O)OCC)c4)c3c2)cnc1OC,42.3,37.2,26.7,36.4,21.6,25.2,,,,,
CCS(=O)(=O)Nc1cc(-c2ccc3ncnc(Nc4ccc(OC(F)(F)F)cc4)c3c2)cnc1OC,25.4,8.24,16.6,23.7,6.14,22.4,,,,,
CCS(=O)(=O)Nc1cc(-c2ccc3ncnc(Nc4ccc(OC)c(Cl)c4)c3c2)cnc1OC,5.24,2.47,5.62,3.32,2.81,3.62,,,,,
CCS(=O)(=O)Nc1cc(-c2ccc3ncnc(Nc4cccc(F)c4)c3c2)cnc1OC,9.94,2.76,3.94,8.02,1.85,2.76,,,,,
CCS(=O)(=O)Nc1cc(-c2ccc3ncnc(Nc4ccc(OC)c(OC)c4)c3c2)cnc1OC,5.82,2.59,4.36,2.43,2.84,1.68,,,,,
CCS(=O)(=O)Nc1cc(-c2ccc3ncnc(Nc4ccc(OC)cc4)c3c2)cnc1OC,3.58,1.88,3.49,1.79,1.61,3.97,,,,,
